From patent publication US6391913B1 (priority 1998, dated 2002)
Where two headings read alike, the source gives them in different places.

How the values were obtained:
CCL6 cells = test: Cytotoxicity of derivatives on CCL6 cell line (Alamar Blue assay, ID50); format: cell-based
Description: The cytotoxicity activity of the derivatives was evaluated on CCL6 cell line. The cells were maintained in RPMI 1640 supplemented with fetal calf serum 10% at 37° C., under a 5% CO2 atmosphere. Cells were plated at 2500 cells per well in 96 well plates. Drugs or derivatives were added 24 hours later. After three days of incubation with drugs or derivatives, 10 μl of Alamar Blue were added to the medium. The Alamar assay was performed as described by Pagé et al. (Pagé, B., et al., Int. J. Oncol., 3, 473-476, 1993), and the ID50 was calculated.

[1] = Chloroform extraction (chloroform-water), mixed one hour, HPLC
[2] = Ratio ID50 of derivative/ID50 of paclitaxel, CCL6 cells, three days of incubation, Alamar Blue

2′-[N-(aminohexyl)-amidohexanoic acid]paclitaxel ester [Taxamine 5]
relative ID* CCL6 (CCL6 cells; [2]): 13

CC(=O)OC1C(=O)C2(C)C(O)CC3OCC3(OC(C)=O)C2C(OC(=O)c2ccccc2)C2(O)CC(OC(=O)C(OC(=O)CCCCCCCCC(=O)O)C(NC(=O)c3ccccc3)c3ccccc3)C(C)=C1C2(C)C (centres unmarked) [Product 5, 2′-(decanedioic acid)-paclitaxel monoester]
relative ID* CCL6 (CCL6 cells): 20

CC(=O)OC1C(=O)C2(C)C(O)CC3OCC3(OC(C)=O)C2C(OC(=O)c2ccccc2)C2(O)CC(OC(=O)C(OC(=O)CCCCC(=O)NCCN)C(NC(=O)c3ccccc3)c3ccccc3)C(C)=C1C2(C)C (centres unmarked) [Taxamine 1, 2′-[N-(aminoethyl)-amidohexanoic acid]-paclitaxel ester]
relative ID* CCL6 (CCL6 cells; [2]): 24
Organic phase/aqueous phase [1]: 151

CC(=O)O[C@H]1C(=O)[C@@]2(C)[C@H]([C@H](OC(=O)c3ccccc3)[C@]3(O)C[C@H](OC(=O)[C@H](O)[C@@H](NC(=O)c4ccccc4)c4ccccc4)C(C)=C1C3(C)C)[C@]1(OC(C)=O)CO[C@@H]1C[C@@H]2O [paclitaxel, reference compound]
relative ID* CCL6 (CCL6 cells; [2]): 1
